The values below come from US5897874A, “Expulsion of material from a delivery device” (R. P. Scherer Corporation, priority 1993, dated 1999).

The series is described as follows: Drug release/delivery (pulse) time of capsule in stirred purified water at 37° C., spectrophotometric. It is filed as physicochemical. An excerpt:
A coated gelatin capsule of the type shown in FIG. 1 was filled with hydrogel powder prepared as in Example 1 of particle size 425 to 710 microns, and metoclopramide drug included as a separate layer. The hydrogel powder was compacted leaving a 4.5 mm space between the top of the hydrogel layer 10 and the mouth of the body 6. The metoclopramide was placed on top and the body was sealed with a hydrogel plug. […] The nominal delivery time was three hours.
In order to assess the delivery time to release of the drug, each capsule was placed in a liter of purified water at 37° C. stirred with a paddle at 50 rpm. The presence of drug in the water was monitored spectrophotometrically.
The procedure was repeated with a capsule having a hydrogel plug designed to provide a nominal delivery time of five hours. […] The "space" represents the space between the top of the hydrogel layer and the mouth of the body after inclusion of the drug. The space allows insertion of the plug to its correct depth without interference from the hydrogel powder fill. In this case the hydrogel plug was recessed 0.5 mm below the upper end of the neck of the capsule body.
Drug release was monitored spectrophotometrically at 226 nm.

“And” between values parts separate entries of the source, which are not always exact repeats. Equal entries are not always repeated.

Under “Example 4, standard deviation of 0.1, nominal three hour pulse time, shorter plug, hydrogel excipient”, salbutamol sulphate gave a mean pulse time of 3.29 h. For `CCN(CC)CCNC(=O)c1cc(Cl)c(N)cc1OC` [metoclopramide], where the note is “individual capsules 1 to 6, Example 2, hydrogel powder excipient, nominal delivery time three hours, 37° C., paddle 50 rpm”, the “Delivery Time” value was 3.25 h and 3.00 h. This molecule also registered a mean delivery time (six capsules, Example 2, standard deviation 0.10, nominal three hours, hydrogel powder excipient) of 3.21 h.
